# Results as given in patent US20200024234A1, “RADIOPHARMACEUTICAL COMPLEXES” (LUMIPHORE, INC., priority 2009, published 2020).
# {NH2C3} = aminopropyl group attached via phosphodiester linkage
# Experiments:
# [1] = cited from earlier work
# [2] = in vivo; cited from earlier work
# [3] = thorium(IV) complexes; cited from earlier work
# [4] = Gel electrophoresis mobility shift assay of complexation with metal cations
# Text: LUMI4® is an isophthalamide class macrocyclic chelate that selectively coordinates to metal cations including those of the lanthanide series. For use in certain applications, such as acting as a bifunctional chelating agent to attach a radioisotope to a site-directing molecule, it is necessary that the chelate be able to coordinate to the metal ion of interest in a kinetically facile and thermodynamically stable manner. […] In this experiment, a conjugate of LUMI4® with a small (18 base length) DNA oligomer was treated with a solution containing a metal cation. The electrophoretic mobility of the conjugate on a polyacrylamide gel was then compared with that of the conjugate which was not exposed to the solution of metal cation. […] To provide an additional comparison, the gel electrophoretic mobility of the DNA oligomer that was not conjugated to LUMI4® was measured with and without exposure to the metal cation solution under identical conditions.
# In particular, a solution of DNA oligomer (6 μL, 5 μM, all concentrations final) was mixed with a solution of metal cation (2 μL, 250 μM) or an equal volume of water. The solution was incubated at 55° C. for five minutes, whereupon the solutions were allowed to cool to ambient temperature and a solution of 50% formamide (7 μL) was added. The resulting solution was again heated to 55° C. for five minutes and then cooled to −20° C. briefly. […]
compound,measurement,setting,value
"O=C(NCCCN(CCCCN(CCCNC(=O)c1cccc(=O)n1O)C(=O)c1cccc(=O)n1O)C(=O)c1cccc(=O)n1O)c1cccc(=O)n1O [3,4,3-LI(1,2-HOPO)]",effective dosage,[1]; in vivo,0.01 to 0.1 µmol/kg
same,"removal of Th(IV), Pu(IV) or Am(III) from the wound site and body compared with CaNa3-DTPA",[1]; injected ip or infiltrated into a wound,much more effective
same,oral activity,[1]; oral,useful oral activity
same,removal of injected or inhaled Pu(IV) and Am(III) compared with CaNa3-DTPA,"[1]; rodents, injected, infused or oral",removes more
same,toxicity at effective dosage,[2],acceptably low toxicity
O=C(O)CN(CCN(CC(=O)O)CC(=O)O)CCN(CC(=O)O)CC(=O)O [DTPA],Log K1,[3],30.34
NC(=O)CCCC(=O)NCCCCC1CN2CCNC(=O)c3cccc(c3O)C(=O)NCCN(CCNC(=O)c3cccc(c3O)C(=O)N1)CCN1CCNC(=O)c3cccc(c3O)C(=O)NCCN(CCNC(=O)c3cccc(c3O)C(=O)NCC1)CC2 (centres unmarked) [LUMI4®],stability of metal complex upon electrophoresis in the presence of the competing chelate EDTA,[4]; LUMI4 conjugated to a DNA oligomer,forms a stable complex
"unmodified oligonucleotide: DNA 18-base oligonucleotide 5′-AAGGTCATCCATGACAAC-3′ (SEQ ID NO: 1) with 5′-aminopropyl group (DNA, 5' {NH2C3}, backbone not given here)",gel mobility following treatment with the metal cation solution,"[4]; 20% polyacrylamide gel, 8 M urea, running buffer with 2 mM EDTA",unaffected
